{"source": "PubChem BioAssay AID602275", "about": "(The Scripps Research Institute Molecular Screening Center, 2012)", "key": {"[1]": {"target": "NS3h 1b[con1]", "assay": "HCV NS3 helicase inhibition across viral strains, late-stage follow-up, selectivity assay for HCV NS3 helicase inhibitor project, biochemical, real-time fluorescence, strains con1 and JFH1, set 3 (AID 602275)", "settings": "Recombinant NS3h, real-time fluorescence helicase unwinding"}, "[2]": {"target": "NS3h 2a[JFH1]", "assay": "HCV NS3 helicase inhibition across viral strains, late-stage follow-up, selectivity assay for HCV NS3 helicase inhibitor project, biochemical, real-time fluorescence, strains con1 and JFH1, set 3 (AID 602275)", "settings": "Recombinant NS3h, real-time fluorescence helicase unwinding"}}, "note": "“And” between values parts separate entries of the source, which are not always exact repeats. Identical values can stand only once. The source made the active and inactive calls. How the calls were made is not given here.", "data": [{"compound": "Cc1ccc2nc(-c3ccc4nc(-c5ccc(NC(=O)Nc6ccc(F)cc6)cc5)sc4c3)sc2c1S(=O)(=O)O", "values": [{"measurement": "IC50", "setting": "[1]", "result": 7.8, "unit": "µM"}, {"measurement": "IC50", "setting": "[2]", "result": 9.9, "unit": "µM"}]}, {"compound": "Cc1ccc2nc(-c3ccc4nc(-c5ccc(NC(=O)c6ccc7nc(-c8ccc(N)cc8)sc7c6)cc5)sc4c3)sc2c1S(=O)(=O)O", "values": [{"measurement": "IC50", "setting": "[1]", "result": 5.5, "unit": "µM"}, {"measurement": "IC50", "setting": "[2]", "result": 3.2, "unit": "µM"}]}, {"compound": "Cc1ccc(C(=O)Nc2ccc(-c3nc4ccc(-c5nc6ccc(C)c(S(=O)(=O)O)c6s5)cc4s3)cc2)cc1", "values": [{"measurement": "IC50", "setting": "[1]", "result": 3.3, "unit": "µM"}, {"measurement": "IC50", "setting": "[2]", "result": 2.5, "unit": "µM"}]}, {"compound": "Cc1ccc2nc(-c3ccc(NC(=O)c4ccc(C(F)(F)F)cc4)cc3)sc2c1S(=O)(=O)O", "values": [{"measurement": "outcome", "setting": "[1]", "result": "inactive"}, {"measurement": "outcome", "setting": "[2]", "result": "inactive"}]}, {"compound": "Cc1ccc2nc(-c3ccc4nc(-c5ccc(NC(=O)c6ccccc6)cc5)sc4c3)sc2c1S(=O)(=O)O", "values": [{"measurement": "IC50", "setting": "[1]", "result": 10.7, "unit": "µM"}, {"measurement": "IC50", "setting": "[2]", "result": 4.6, "unit": "µM"}]}, {"compound": "Cc1ccc2nc(-c3ccc4nc(-c5ccc(NC(=O)c6ccc(C(F)(F)F)cc6)cc5)sc4c3)sc2c1S(=O)(=O)O", "values": [{"measurement": "IC50", "setting": "[1]", "result": 1.8, "unit": "µM"}, {"measurement": "IC50", "setting": "[2]", "result": 2.3, "unit": "µM"}]}, {"compound": "Cc1ccc2nc(-c3ccc4nc(-c5ccc(NC(=O)c6ccc7ccccc7c6)cc5)sc4c3)sc2c1S(=O)(=O)O", "values": [{"measurement": "IC50", "setting": "[1]", "result": "2.7 µM and 3.6 µM"}, {"measurement": "IC50", "setting": "[2]", "result": "2.2 µM and 4.4 µM"}]}, {"compound": "CCOc1ccc2nc(NC(=O)c3ccc4ncsc4c3)sc2c1", "values": [{"measurement": "outcome", "setting": "[1]", "result": "inactive"}, {"measurement": "IC50", "setting": "[2]", "result": "inactive"}]}, {"compound": "Cc1ccc2nc(-c3ccc4nc(-c5ccc(NC(=O)c6ccc(Br)cc6)cc5)sc4c3)sc2c1S(=O)(=O)O", "values": [{"measurement": "IC50", "setting": "[1]", "result": 5.2, "unit": "µM"}, {"measurement": "IC50", "setting": "[2]", "result": 7.4, "unit": "µM"}]}, {"compound": "Cc1ccc2nc(-c3ccc4nc(-c5ccc6nc(-c7ccc(N)cc7)sc6c5)sc4c3)sc2c1S(=O)(=O)O", "values": [{"measurement": "IC50", "setting": "[1]", "result": 0.9, "unit": "µM"}, {"measurement": "IC50", "setting": "[2]", "result": 0.6, "unit": "µM"}]}]}
